Structures can show the parent of a compound that is named as a salt.
What was measured:
rat μ opioid receptor = target: T1, rat μ opioid receptor (Rattus norvegicus, UniProt P33535); test: μ opioid receptor binding assay ([3H]diprenorphine); conditions: rat μ opioid receptor-expressing cell membrane, 0.5 nM [3H]diprenorphine, 25° C. 60 minutes; read-out: Affinity for μ receptors Ki value
T1 construct: expressed in transfected cells
Protocol: μ Opioid Receptor Binding Assay
A rat μ opioid receptor-expressing cell membrane preparation was prepared so that it contained 8.5 μg/mL of the membrane protein in a Tris buffer [50 mM Tris-HCl (pH7.8), 5 mM MgCl2, 1 mM EGTA, 0.1% BSA]. To this, [^3H]diprenorphine (diluted at the final concentration of 0.5 nM with the Tris buffer) and each test compound was added and the mixture was incubated at 25° C. for 60 minutes. Using a cell harvester and a washing solution [50 mM Tris-HCl (pH7.8), 4° C.], the membrane was recovered onto a GF/B filter which had been pretreated with 0.3% PEI, which was then washed further 3 times. The filter was transferred to a vial, to which a scintillator was added, and the radioactivity was measured using a liquid scintillation counter. Noted that a non-specific binding was regarded as a binding in the presence of […], and a specific binding was obtained by subtracting the non-specific binding from the total binding. From a ratio of binding inhibition in the presence of the tested substance, an IC50 value was obtained, and was then used together with the Kd value for [^3H]diprenorphine to calculate the Ki value for the tested substance.

ICR male mice = test: Mouse eye-scratching behavior induced by serotonin; format: in vivo; conditions: 0.5% test compound, 10 μl dropped into eye five minutes before 1% serotonin; counted for 10 minutes
Protocol: Effect on Mouse Eye-scratching Behavior Induced by Serotonin
After dropping 10 μl of 1% serotonin hydrochloride (hereinafter referred to as serotonin) into right eye of ICR male mice (4 to 6 weeks old), the number of eye-scratcing behavior induced by dropping of serotonin was measured for 10 minutes.
As the test compound, inventive compounds of Example 1, Example 2, Example 3, Example 6, Example 12, Example 29, Example 52, Example 364, Example 381 and Example 383 were used. Five minutes before dropping serotonin, 10 μl of each test compound was dropped. Distilled water as a solvent of the test compound was dropped as a control group.

[1] = target: T2, human nociceptin receptor (Homo sapiens, UniProt P41146); test: Nociceptin receptor binding assay ([3H]nociceptin); conditions: cell membrane of human nociceptin receptor-expressing cell, 0.08 nM [3H]nociceptin, 25° C. 60 minutes; read-out: Affinity for nociceptin receptors Ki value
T2 construct: expressed in transfected cells
Protocol: Nociceptin Receptor Binding Assay
A cell membrane suspension obtained from a human nociceptin receptor-expressing cell was prepared so that it contained 5 to 10 μg/mL of the membrane protein in a Tris buffer [50 mM Tris-HCl (pH7.8), 5 mM MgCl2, 1 mM EGTA [Ethylene Glycol Bis(β-aminoethylether)-N,N,N′,N′-tetraacetic Acid], 0.1% BSA (Bovine Serum Alubumin)]. To this, [^3H]nociceptin (diluted at the final concentration of 0.08 nM with the Tris buffer) and each test compound was added and the mixture was incubated at 25° C. for 60 minutes. Using a cell harvester and a washing solution [50 mM Tris-HCl (pH7.8), 4° C.], the membrane was recovered onto a GF/B filter which had been pretreated with 0.3% PEI (polyethylenimine), which was then washed further 3 times. The filter was transferred to a vial, to which a scintillator was added, and the radioactivity was measured using a liquid scintillation counter. Noted that a non-specific binding was regarded as a binding in the presence of 10 μM nociceptin, and a specific binding was obtained by subtracting the non-specific binding from the total binding. From a ratio of binding inhibition in the presence of the tested substance, an IC50 value was obtained, and was then used together with the Kd value for [^3H]nociceptin to calculate the Ki value for the tested substance.

T2 sequence (P41146 whole entry): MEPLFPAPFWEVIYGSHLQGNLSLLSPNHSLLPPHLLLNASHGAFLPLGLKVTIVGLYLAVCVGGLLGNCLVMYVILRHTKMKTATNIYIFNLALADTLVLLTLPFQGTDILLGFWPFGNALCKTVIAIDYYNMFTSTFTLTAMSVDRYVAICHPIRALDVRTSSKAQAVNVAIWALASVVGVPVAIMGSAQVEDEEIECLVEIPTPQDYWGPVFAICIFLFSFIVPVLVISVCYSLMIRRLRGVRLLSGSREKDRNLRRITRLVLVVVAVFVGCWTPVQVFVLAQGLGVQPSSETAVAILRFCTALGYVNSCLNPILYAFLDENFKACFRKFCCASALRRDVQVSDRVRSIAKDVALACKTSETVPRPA
T1 sequence (P33535 whole entry): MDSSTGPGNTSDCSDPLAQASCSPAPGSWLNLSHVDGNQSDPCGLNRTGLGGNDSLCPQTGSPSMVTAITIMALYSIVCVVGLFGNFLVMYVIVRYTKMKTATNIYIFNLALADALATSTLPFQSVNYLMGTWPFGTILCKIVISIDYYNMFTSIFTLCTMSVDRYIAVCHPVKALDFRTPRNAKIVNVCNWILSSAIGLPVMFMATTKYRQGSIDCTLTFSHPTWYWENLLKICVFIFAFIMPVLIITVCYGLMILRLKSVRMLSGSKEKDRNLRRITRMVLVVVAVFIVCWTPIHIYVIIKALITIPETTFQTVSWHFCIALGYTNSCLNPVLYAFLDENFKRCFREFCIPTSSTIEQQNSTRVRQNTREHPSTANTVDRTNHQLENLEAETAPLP

| Compound | Ki (rat μ opioid receptor) [nM] | Average number of scratching behavior (ICR male mice) | Ki [1] [nM] |
| --- | --- | --- | --- |
| COc1ccc(C(=O)Nc2nc(N[C@H]3CCCC[C@H]3NC(=N)N)c3cc(C)ccc3n2)c(OC)c1.Cl.Cl [Example 6, N-{4-[((1S,2R)-2-{[amino(imino)methyl]amino}cyclohexyl)amino]-6-methylquinazolin-2-yl}-2,4-dimethoxybenzamide dihydrochloride] | 550 | 2.38 | 0.67 |
| COc1ccc(NC(=O)c2nc(N[C@H]3CCCC[C@H]3NC(=N)N)c3cc(C)ccc3n2)cc1.Cl.Cl [Example 2, 4-[((1S,2R)-2-{[amino(imino)methyl]amino}cyclohexyl)amino]-N-(4-methoxyphenyl)-6-methylquinazoline-2-carboxamide dihydrochloride] | – | 7.25 | – |
| Cc1ccc2nc(C(=O)NC3CCCCCC3)nc(N[C@H]3CCCC[C@H]3NC(=N)N)c2c1.Cl.Cl [Example 364, 4-[((1S,2R)-2-{[amino(imino)methyl]amino}cyclohexyl)amino]-N-cycloheptyl-6-methylquinazoline-2-carboxamide dihydrochloride] | – | 5.17 | – |
| Cc1ccc2nc(NC(=O)c3cc4ccccc4s3)nc(N[C@H]3CCCC[C@H]3NC(=N)N)c2c1.Cl.Cl [Example 1, N-{4-[((1S,2R)-2-{[amino(imino)methyl]amino}cyclohexyl)amino]-6-methylquinazolin-2-yl}-1-benzothiophene-2-carboxamide dihydrochloride] | 180 | 9.57 | 0.15 |
| COc1ccc2cc(C(=O)Nc3nc(N[C@H]4CCCC[C@H]4NC(=N)N)c4cc(C)ccc4n3)ccc2c1 [Example 7, N-{4-[((1S,2R)-2-{[amino(imino)methyl]amino}cyclohexyl)amino]-6-methylquinazolin-2-yl}-6-methoxy-2-naphthamide dihydrochloride] | 570 | – | 0.65 |
| Cc1ccc2nc(C(=O)NCC(C)C)nc(N[C@H]3CCCC[C@H]3NC(=N)N)c2c1.Cl.Cl [Example 383, 4-[((1S,2R)-2-{[amino(imino)methyl]amino}cyclohexyl)amino]-N-isobutyl-6-methylquinazoline-2-carboxamide dihydrochloride] | – | 2.33 | – |
| Cc1ccc2nc(C(=O)NCC(C)(C)C)nc(N[C@H]3CCCC[C@H]3NC(=N)N)c2c1.Cl.Cl [Example 29, 4-[((1S,2R)-2-{[amino(imino)methyl]amino}cyclohexyl)amino]-6-methyl-N-neopentylquinazoline-2-carboxamide dihydrochloride] | – | 1.67 | – |
| Cc1ccc2nc(C(=O)NCCc3ccsc3)nc(N[C@H]3CCCC[C@H]3NC(=N)N)c2c1.Cl.Cl [Example 381, 4-[((1S,2R)-2-{[amino(imino)methyl]amino}cyclohexyl)amino]-6-methyl-N-[2-(3-thienyl)ethyl]quinazoline-2-carboxamide dihydrochloride] | – | 5.00 | – |
| COc1ccc(C(=O)Nc2nc(N[C@H]3CCCC[C@H]3NC(=N)N)c3cc(C)ccc3n2)cc1.Cl.Cl [Example 12, N-{4-[((1S,2R)-2-{[amino(imino)methyl]amino}cyclohexyl)amino]-6-methylquinazolin-2-yl}-4-methoxybenzamide dihydrochloride] | 680 | 8.17 | 0.57 |
| Cc1ccc2nc(NC(=O)c3cc4ccccc4o3)nc(N[C@H]3CCCC[C@H]3NC(=N)N)c2c1.Cl.Cl [Example 3, N-{4-[((1S,2R)-2-{[amino(imino)methyl]amino}cyclohexyl)amino]-6-methylquinazolin-2-yl}-1-benzofuran-2-carboxamide dihydrochloride] | 260 | 2.33 | 0.14 |
| Cc1ccc2nc(C(=O)Nc3ccc(C)c(C)c3)nc(N[C@H]3CCCC[C@H]3NC(=N)N)c2c1.Cl.Cl [Example 52, 4-[((1S,2R)-2-{[amino(imino)methyl]amino}cyclohexyl)amino]-N-(3,4-dimethylphenyl)-6-methylquinazoline-2-carboxamide dihydrochloride] | – | 4.50 | – |
